Details: 303.14 K, Liquid, Vibrating tube method

CCCCCCC(=O)OCC(COC(=O)CCCCCC)(COC(=O)CCCCCC)COC(=O)CCCCCC [pentaerythritol tetraheptanoate]
Details	mass density [kg/m3]
163.7 kPa	970.9
201.8 kPa	970.9
226 kPa	970.8
241.8 kPa	970.9
250.8 kPa	970.9
258.8 kPa	970.8
267.9 kPa	970.9
279.3 kPa	971
289.8 kPa	970.8
301.4 kPa	970.9
315.8 kPa	970.9
328.9 kPa	970.9
342.6 kPa	970.8
354.2 kPa	971
366.8 kPa	970.9
380 kPa	971
397.2 kPa	971
412.5 kPa	971
432.5 kPa	970.9
450.7 kPa	970.9
470.3 kPa	971
496.8 kPa	971
520.4 kPa	971.1
547 kPa	971.1
581.4 kPa	970.9
613 kPa	971.2
645.8 kPa	971.1
676.4 kPa	971.1
706.7 kPa	971.2
734.4 kPa	971.2
762.1 kPa	971.2
785 kPa	971.2
807.4 kPa	971.1
827.2 kPa	971.2
847.6 kPa	971.2
869.1 kPa	971.2
895.8 kPa	971.3
919.6 kPa	971.2
944.3 kPa	971.2
969.8 kPa	971.3
1002.7 kPa	971.3
1031.7 kPa	971.4
1063.1 kPa	971.4
1101.5 kPa	971.3
1163.5 kPa	971.4
1217.5 kPa	971.4
1278.3 kPa	971.6
1312.2 kPa	971.5
1337.9 kPa	971.6
1347.4 kPa	971.5
1357.1 kPa	971.5
1376.9 kPa	971.5
1461 kPa	971.6
1578.5 kPa	971.7
1661.5 kPa	971.6
1692.7 kPa	971.7
1725.9 kPa	971.9
1765.8 kPa	971.8
1800.2 kPa	971.8
1836.8 kPa	971.9
1873.8 kPa	971.9
1919.1 kPa	972
1958.5 kPa	971.8
2006.7 kPa	971.9
2049 kPa	972.1
2092.9 kPa	971.9
2137.7 kPa	972.1
2193.4 kPa	972
2240.2 kPa	972.1
2293.3 kPa	972.3
2315.9 kPa	972.1
2329.2 kPa	972.2
2344.7 kPa	972.2
2358.2 kPa	972.3
2371.9 kPa	972.1
2388.4 kPa	972.3
2402.1 kPa	972.3
2416.3 kPa	972.3
2433 kPa	972.3
2447.2 kPa	972.3
2464.4 kPa	972.2
2478.9 kPa	972.3
2494 kPa	972.2
2508.9 kPa	972.2
2528 kPa	972.2
2539.8 kPa	972.2
2558.1 kPa	972.4
2573.1 kPa	972.3
2592.1 kPa	972.3
2607.7 kPa	972.4
2623.3 kPa	972.3
2639.6 kPa	972.3
2658.8 kPa	972.5
2675.1 kPa	972.3
2691.8 kPa	972.4
2711.7 kPa	972.4
2728.4 kPa	972.4
2745.4 kPa	972.5
2766 kPa	972.5
2783.2 kPa	972.6
2800.7 kPa	972.5
2821.5 kPa	972.6
2839.7 kPa	972.5
2857.4 kPa	972.6
2879.2 kPa	972.5
2897.6 kPa	972.5
2916.3 kPa	972.5
2935.4 kPa	972.5
2957.6 kPa	972.5
2976.7 kPa	972.5
2995.9 kPa	972.5
3019.1 kPa	972.7
